Laboratory results published in patent US20050065062A1, “Method of formulating a pharmaceutical composition” (3M Innovative Properties Company, priority 2003, published 2005).

Legend:
[1] = Franz diffusion cell, membrane diffusion across poly(dimethylsiloxane) membrane
[2] = Franz diffusion cell, membrane diffusion across hairless mouse skin; assay type: in vitro ADME
Protocol: Diffusion of the compounds through hairless mouse skin into phosphate buffer in a Franz cell was carried out and measured as described in Example 1, with Sudan I being used in place of Fat Brown RR.

[3] = saturated solution in alpha-terpineol, 0 hours
[4] = saturated solution in alpha-terpineol, 24 hours
[5] = saturated solution in isostearic acid, 0 hours
[6] = saturated solution in isostearic acid, 24 hours
[7] = saturated solution in propylene glycol, 0 hours
[8] = saturated solution in propylene glycol, 24 hours
[9] = saturated solution in tetraglycol, 0 hours
[10] = saturated solution in tetraglycol, 24 hours

CCN(CCO)c1ccc(N=Nc2ccc([N+](=O)[O-])cc2)cc1 [Disperse Red 1]
relative order for membrane diffusion rate ([1]; ranking of excipients): alpha-terpineol>isostearic acid>tetraglycol | CUMULATIVE AMOUNT OF COMPOUND DIFFUSED ACROSS SKIN [1, 3]: 0 μg/10 mL | CUMULATIVE AMOUNT OF COMPOUND DIFFUSED ACROSS SKIN [1, 4]: 11 μg/10 mL | CUMULATIVE AMOUNT OF COMPOUND DIFFUSED ACROSS SKIN ([1]; saturated solution in alpha-terpineol, 48 hours): 25 μg/10 mL | CUMULATIVE AMOUNT OF COMPOUND DIFFUSED ACROSS SKIN ([1]; saturated solution in alpha-terpineol, 72 hours): 45 μg/10 mL | CUMULATIVE AMOUNT OF COMPOUND DIFFUSED ACROSS SKIN [1, 5]: 0 μg/10 mL | CUMULATIVE AMOUNT OF COMPOUND DIFFUSED ACROSS SKIN [1, 6]: 3 μg/10 mL | CUMULATIVE AMOUNT OF COMPOUND DIFFUSED ACROSS SKIN ([1]; saturated solution in isostearic acid, 48 hours): 6 μg/10 mL | CUMULATIVE AMOUNT OF COMPOUND DIFFUSED ACROSS SKIN ([1]; saturated solution in isostearic acid, 72 hours): 12 μg/10 mL | CUMULATIVE AMOUNT OF COMPOUND DIFFUSED ACROSS SKIN [1, 7]: 0 μg/10 mL | CUMULATIVE AMOUNT OF COMPOUND DIFFUSED ACROSS SKIN [1, 8]: 1 μg/10 mL | CUMULATIVE AMOUNT OF COMPOUND DIFFUSED ACROSS SKIN ([1]; saturated solution in propylene glycol, 48 hours): 4 μg/10 mL | CUMULATIVE AMOUNT OF COMPOUND DIFFUSED ACROSS SKIN ([1]; saturated solution in propylene glycol, 72 hours): 10 μg/10 mL | CUMULATIVE AMOUNT OF COMPOUND DIFFUSED ACROSS SKIN [1, 9]: 0 μg/10 mL | CUMULATIVE AMOUNT OF COMPOUND DIFFUSED ACROSS SKIN [1, 10]: 1 μg/10 mL | CUMULATIVE AMOUNT OF COMPOUND DIFFUSED ACROSS SKIN ([1]; saturated solution in tetraglycol, 48 hours): 3 μg/10 mL | CUMULATIVE AMOUNT OF COMPOUND DIFFUSED ACROSS SKIN ([1]; saturated solution in tetraglycol, 72 hours): 6 μg/10 mL

Nc1ccc(N=Nc2cccc3ccccc23)c(N)c1 [Fat Brown RR]
relative order for membrane diffusion rate ([2]; ranking of excipients): alpha-terpineol>propylene glycol>isostearic acid>tetraglycol | CUMULATIVE AMOUNT OF COMPOUND DIFFUSED ACROSS SKIN [2, 3]: 0 µg/mL | CUMULATIVE AMOUNT OF COMPOUND DIFFUSED ACROSS SKIN ([2]; saturated solution in alpha-terpineol, 6 hours): 168 µg/mL | CUMULATIVE AMOUNT OF COMPOUND DIFFUSED ACROSS SKIN ([2]; saturated solution in alpha-terpineol, 12 hours): 444 µg/mL | CUMULATIVE AMOUNT OF COMPOUND DIFFUSED ACROSS SKIN ([2]; saturated solution in alpha-terpineol, 18 hours): 812 µg/mL | CUMULATIVE AMOUNT OF COMPOUND DIFFUSED ACROSS SKIN [2, 4]: 1162 µg/mL | CUMULATIVE AMOUNT OF COMPOUND DIFFUSED ACROSS SKIN [2, 5]: 0 µg/mL | CUMULATIVE AMOUNT OF COMPOUND DIFFUSED ACROSS SKIN ([2]; saturated solution in isostearic acid, 6 hours): 41 µg/mL | CUMULATIVE AMOUNT OF COMPOUND DIFFUSED ACROSS SKIN ([2]; saturated solution in isostearic acid, 12 hours): 92 µg/mL | CUMULATIVE AMOUNT OF COMPOUND DIFFUSED ACROSS SKIN ([2]; saturated solution in isostearic acid, 18 hours): 169 µg/mL | CUMULATIVE AMOUNT OF COMPOUND DIFFUSED ACROSS SKIN [2, 6]: 262 µg/mL | CUMULATIVE AMOUNT OF COMPOUND DIFFUSED ACROSS SKIN [2, 7]: 0 µg/mL | CUMULATIVE AMOUNT OF COMPOUND DIFFUSED ACROSS SKIN ([2]; saturated solution in propylene glycol, 6 hours): 84 µg/mL | CUMULATIVE AMOUNT OF COMPOUND DIFFUSED ACROSS SKIN ([2]; saturated solution in propylene glycol, 12 hours): 221 µg/mL | CUMULATIVE AMOUNT OF COMPOUND DIFFUSED ACROSS SKIN ([2]; saturated solution in propylene glycol, 18 hours): 445 µg/mL | CUMULATIVE AMOUNT OF COMPOUND DIFFUSED ACROSS SKIN [2, 8]: 677 µg/mL | CUMULATIVE AMOUNT OF COMPOUND DIFFUSED ACROSS SKIN [2, 9]: 0 µg/mL | CUMULATIVE AMOUNT OF COMPOUND DIFFUSED ACROSS SKIN ([2]; saturated solution in tetraglycol, 6 hours): 13 µg/mL | CUMULATIVE AMOUNT OF COMPOUND DIFFUSED ACROSS SKIN ([2]; saturated solution in tetraglycol, 12 hours): 25 µg/mL | CUMULATIVE AMOUNT OF COMPOUND DIFFUSED ACROSS SKIN ([2]; saturated solution in tetraglycol, 18 hours): 39 µg/mL | CUMULATIVE AMOUNT OF COMPOUND DIFFUSED ACROSS SKIN [2, 10]: 52 µg/mL
